Source: US5952189A (priority 1997, dated 1999)
“And” between values parts separate entries of the source, which are not always exact repeats. Equal values may be shown once. “Also recorded” adds a separate entry of the source. Read-outs that look alike come from different tables or passages of the source.

Assays:
U937 cells = assay: cells; type: cell-based, human
BT-20 = type: cell-based, human; conditions: for % DNA fragmentation: BT-20, UV 0.5 J/cm^2, 8 h, no inhibitor 44 ± 3.6
3T3 = assay: Inhibition of UV-induced DNA fragmentation in 3T3 cells; type: cell-based, murine; conditions: UV 0.5 J/cm^2, 8 h, no inhibitor 38 ± 1.9
Experimental: To determine if these findings were unique to U937 or if other cell lines also require protease activity to undergo apoptosis, the effects of several inhibitors on apoptosis induced by UV light in the human mammary carcinoma, BT-20, the murine fibroblast cell line, 3T3, and the human myeloid leukemia, HL-60 were tested. For the BT-20 and 3T3 cells, target cells were pretreated for one hour (with or without inhibitors as indicated in the table) and exposed to UV light at 0.5 J/cm^2 and then incubated for eight hours prior to assessing DNA fragmentation. HL-60 cells were pretreated for one hour (with or without inhibitors as indicated in the table) and exposed to UV at 0.2 J/cm^2 and then incubated for two hours prior to assessing DNA fragmentation.
DNA fragmentation assays were carried out according to the protocol of Wright S. C., et al. (1,992) J. Cell. Biochem. 48, 344-355. Target cells were labeled with ^3 H-thymidine and plated in triplicate in flat bottom microtiter plates. Cells were incubated for the indicated length of time for each experiment in the presence of TNF or various inhibitors. In some experiments, cells were treated with UV light at 245 nm using a UV Crosslinker (Fisher Scientific). Assays were harvested and counted on a Packard matrix 96 beta counter. Percent DNA fragmentation was calculated as for the nuclear assay described in Example 3. In assays to test the effects of various inhibitors, the pH of extra wells containing assay buffer, target cells, and each inhibitor was always checked at the beginning and end of each assay to assure that the pH remained at 7.5.

isolated U937 nuclei = assay: DNA fragmentation assay using isolated U937 nuclei; type: cell-based, human; conditions: inhibitor 50 μM (FIG. 6B)
Experimental: U937 cells were labeled with ^3 H-thymidine by culturing overnight with isotope at 0.5 μCi/ml. The cells were pelleted, washed once, and the cytoplasmic membrane lysed by resuspending the cells in assay buffer (50 mM Tris, 250 mM sucrose 10 mM MgSO4, pH 7.5) plus 0.02% NP-40. Nuclei were then pelleted and resuspended in assay buffer at 1×10^6 /ml. The assay was set up in triplicate in flat bottom microtiter plates under sterile conditions. Nuclei (0.05 ml) were mixed with 0.05 ml of sample diluted in 50 mM Tris pH 7.5 or buffer alone to determine total counts. Plates were incubated for 5 h at 37° C. and then harvested by the addition of 0.1 ml of harvesting buffer (10 mM Tris, 10 mM EDTA, 0.3% Triton X-100, pH 7.5). Plates were harvested by filtration onto glass fiber paper and counted on a Packard Matrix 96 beta counter. Percent DNA fragmentation was calculated as follows: […]

[1] = tested on: TNF-induced hepatocyte apoptosis; assay: TNF-induced hepatotoxicity in mice (serum transaminases); type: in vivo, Balb/c mice; conditions: for AST: without DK120 78
Experimental: In this example the concept that a protease inhibitor such as DK120 may attenuate inappropriate apoptosis that causes tissue damage in systemic inflammatory response syndrome (SIRS) was tested. TNF-induced hepatocyte apoptosis in mice was performed as described by Leist et al. ((1995) J. Immunol. 154:1778-1786). Briefly, Balb/c mice were injected ip with […] murine TNF combined with […] Actinomycin D/mouse. Twelve h later, mice were anesthetized and bled from the heart to measure serum transaminase levels, which are standard clinically used indicators of liver damage. Mice that were treated with protease inhibitors were injected ip with these compounds 30 min. prior to TNF. Alanine aminotransferase (ALT) and aspartate aminotransferase (AST) were assayed using a commercially available kit (Sigma). […] However, treatment with DK120 caused a doss-dependent decrease in serum transaminase levels. […] However, a drug that nonspecifically blocks all apoptotic pathways that normally function to maintain homeostasis may not be clinically desirable. Subsequent studies were performed to determine if DK120 could also suppress hepatocyte apoptosis in response to a different stimulus.
(§1) ^1 Mice (2 for each treatment) were injected ip +/- DK120 30 min prio
to TNF and Actinomycin D. Twelve h later serum transaminase levels were
To further explore the specificity of DK120 attenuation of TNF-induced hepatotoxicity, several compounds were tested that were found previously not to inhibit apoptotic protease proteolytic activity as measured against a synthetic substrate (data not shown). […] Therefore, the protection mediated by DK120 is not a property of any boron-containing molecule.
^1 Mice (3 for each treatment) were injected ip +/- the inhibitors 30
min prior to TNF and Actinomycin D. Twelve h later serum transaminase

[2] = tested on: anti-Fas-induced hepatocyte apoptosis; assay: Anti-Fas induced hepatotoxicity in mice (serum transaminases); type: in vivo
Experimental: It has been previously shown that injection of mice with antibodies directed against the Fas antigen causes hepatocyte apoptosis and death due to liver failure (Ogasawara et al. (1993) Nature 364:806-809). Therefore, the effects of administration of DK120 to mice injected with antibodies directed against the murine Fas antigen were tested.
as §1
to antiFas antibodies. Twelve h later serum transaminase levels were […]

[3] = tested on: SEB-induced hepatotoxicity; type: in vivo, mice; conditions: Gln + SEB + DK120 5 mg/kg
mice = assay: Toxicity of DK120 in mice on daily injection; type: in vivo
Experimental: In preliminary studies daily injection of mice with DK120 at 20 mg/kg was lethal. The reason for toxicity is not clear but may be related to the ability of DK120 to inhibit chymotrypsin-like enzymes that may be essential for the normal function of various tissues.

[4] = tested on: chymotrypsin-like enzymes; conditions: cited from earlier work

## C[C@H](NC(=O)OCc1ccccc1)C(=O)N[C@@H](C)C(=O)NC(Cc1ccccc1)B(O)O (some centres unmarked) [DK120, carbobenzoxy-ala-ala-borophe]
U937 cells; Homo sapiens, U-937, read-out: IC50 (Active Concentration), TNF and UV-light induced apoptosis
  IC50: 1.2 µM
U937 cells; U937, TNF 1.0 ng/ml plus cycloheximide or UV 0.1 J/cm^2, 1 h pretreatment (FIG. 1)
  Concentration of maximum suppression of DNA fragmentation: 2.0 µM
U937 cells; U937 cells, result in words
  Effect on DNA fragmentation induced by TNF or UV light: suppressed DNA fragmentation; also recorded: dose-dependently inhibit DNA fragmentation
BT-20; inhibitor 0.2 μM
  % DNA fragmentation: 5 ± 8.7%
BT-20; inhibitor 1 μM
  % DNA fragmentation: 0%
BT-20; inhibitor 5 μM
  % DNA fragmentation: 0%
BT-20; summary of Table 2 (BT-20, 3T3, HL-60)
  Effect on UV-induced DNA fragmentation: effectively blocked DNA fragmentation
3T3; inhibitor 1 μM
  % DNA fragmentation: 24 ± 0.3%
3T3; inhibitor 5 μM
  % DNA fragmentation: 19 ± 1.9%
Isolated U937 nuclei
  Inhibition of nuclear DNA fragmenting activity of protease from UV-treated cells: inhibited
[1]; Table 7, DK120 1 mg/kg ip 30 min prior to Actinomycin D + TNF, 12 h
  AST: 64 U/ml
[1]; Table 7, DK120 1 mg/kg ip 30 min prior to Actinomycin D + TNF, 12 h, without DK120 398
  ALT: 232 U/ml
[1]; Table 7, DK120 2.5 mg/kg ip 30 min prior to Actinomycin D + TNF, 12 h
  AST: 47 U/ml
[1]; Table 7, DK120 2.5 mg/kg ip 30 min prior to Actinomycin D + TNF, 12 h, without DK120 398
  ALT: 145 U/ml
[1]; Table 7, DK120 5 mg/kg ip 30 min prior to Actinomycin D + TNF, 12 h, without DK120 398
  ALT: 123 U/ml
[1]; Table 7, DK120 10 mg/kg ip 30 min prior to Actinomycin D + TNF, 12 h
  AST: 56 U/ml
[1]; Table 7, DK120 10 mg/kg ip 30 min prior to Actinomycin D + TNF, 12 h, without DK120 398
  ALT: 50 U/ml
[1]; Table 10, 10 mg/kg
  Protection from TNF-induced hepatotoxicity: reduced levels of ALT to close to that of Actinomycin D alone
[1]; ip 30 min prior to TNF
  Effect on TNF-induced serum transaminase levels: reduced transaminase to levels very close to those seen in mice injected with Actinomycin D only
[1]; mouse, in vivo
  ALT: 190 +/- 21 U/ml and 141 +/- 20 U/ml
[2]; DK120 5 mg/kg ip 30 min prior to anti-Fas, 12 h, without DK120 81
  AST: 121 U/ml
[2]; DK120 5 mg/kg ip 30 min prior to anti-Fas, 12 h, without DK120 513
  ALT: 746 U/ml
[2]; mouse, in vivo
  Effect on anti-Fas induced elevation of serum transaminases: did not counteract the elevation of serum transaminases induced by anti-Fas antibodies
[3]; without DK120 33
  % Mortality: 0%
[3]; without DK120 119
  AST: 72 +/- 13 U/ml
[3]; without DK120 339
  ALT: 205 +/- 28 U/ml
mice; daily injection, 20 mg/kg, preliminary studies
  Lethality: lethal
mice; mouse, in vivo
  Toxicity of compound alone: relatively toxic
[4]
  Inhibition of chymotrypsin / chymotrypsin-like enzymes: reversible inhibitor of chymotrypsin; also recorded: potently inhibits chymotrypsin-like enzymes
